From PubChem BioAssay (NCI)
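Assay format: 96-well plates, 48-hour exposure. GI50 = concentration required for 50% inhibition of growth. TGI denotes the concentration required for complete inhibition of growth.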

Key:
Assay in all cases: growth of human tumour cells (NCI), 48 h
[1] = test system: 786-0 renal
[2] = test system: A498 renal
[3] = test system: A549 NSCLC
[4] = test system: ACHN renal
[5] = test system: BT-549 breast
[6] = test system: CAKI-1 renal
[7] = test system: CCRF-CEM leukemia
[8] = test system: COLO 205 colon
[9] = test system: DU-145 prostate
[10] = test system: EKVX NSCLC
[11] = test system: HCC-2998 colon
[12] = test system: HCT-116 colon
[13] = test system: HCT-15 colon
[14] = test system: HL-60(TB) leukemia
[15] = test system: HOP-62 NSCLC
[16] = test system: HOP-92 NSCLC
[17] = test system: HT29 colon
[18] = test system: IGROV1 ovarian
[19] = test system: K-562 leukemia
[20] = test system: KM12 colon
[21] = test system: LOX IMVI melanoma
[22] = test system: M14 melanoma
[23] = test system: MALME-3M melanoma
[24] = test system: MCF7 breast
[25] = test system: MDA-MB-231 breast
[26] = test system: MDA-MB-435
[27] = test system: MDA-MB-468 breast
[28] = test system: MOLT-4 leukemia
[29] = test system: NCI-H226 lung
[30] = test system: NCI-H23 lung
[31] = test system: NCI-H460 lung
[32] = test system: NCI-H522 lung
[33] = test system: NCI/ADR-RES ovarian
[34] = test system: OVCAR-3 ovarian
[35] = test system: OVCAR-4 ovarian
[36] = test system: OVCAR-5 ovarian
[37] = test system: OVCAR-8 ovarian
[38] = test system: PC-3 prostate
[39] = test system: RPMI-8226 leukemia
[40] = test system: RXF 393 renal
[41] = test system: SF-268 CNS
[42] = test system: SF-295 CNS
[43] = test system: SF-539 CNS
[44] = test system: SK-MEL-2 melanoma
[45] = test system: SK-MEL-28 melanoma
[46] = test system: SK-MEL-5 melanoma
[47] = test system: SK-OV-3 ovarian
[48] = test system: SN12C renal
[49] = test system: SNB-19 CNS
[50] = test system: SNB-75 CNS
[51] = test system: SR leukemia
[52] = test system: SW-620 colon
[53] = test system: T-47D breast
[54] = test system: TK-10 renal
[55] = test system: U251 CNS
[56] = test system: UACC-257 melanoma
[57] = test system: UACC-62 melanoma
[58] = test system: UO-31 renal

`CC(C)N=C([Se])NC(=O)c1ccccc1` showed a GI50 [1] of 1.8 µM, a TGI [1] of 3.25 µM and a GI50 [2] of 2.85 µM. For the same compound, the TGI [2] was 8.02 µM, the GI50 [3] was 3.11 µM and the TGI [3] was 34.8 µM. It also gave a GI50 [4] of 1.92 µM, a TGI [4] of 3.41 µM and a GI50 [5] of 1.61 µM. For the same compound, the TGI [5] was 3.55 µM, the GI50 [6] was 1.67 µM and the TGI [6] was 3.04 µM. It also gave a GI50 [7] of 3.05 µM, a TGI [7] of 10.8 µM and a GI50 [8] of 2.49 µM. The TGI [8] was 6.46 µM, the GI50 [9] was 1.95 µM and the TGI [9] was 3.6 µM. It also gave a GI50 [10] of 1.77 µM, a TGI [10] of 3.32 µM and a GI50 [11] of 1.92 µM. It also gave a TGI [11] of 3.67 µM, a GI50 [12] of 1.88 µM and a TGI [12] of 3.49 µM. It also gave a GI50 [13] of 1.85 µM, a TGI [13] of 3.63 µM and a GI50 [14] of 2.07 µM. It also gave a TGI [14] of 5.37 µM, a GI50 [15] of 2.03 µM and a TGI [15] of 5.19 µM. For the same compound, the GI50 [16] was 1.95 µM, the TGI [16] was 4.36 µM and the GI50 [17] was 2.34 µM. For the same compound, the TGI [17] was 5.99 µM, the GI50 [18] was 1.76 µM and the TGI [18] was 3.49 µM. It also gave a GI50 [19] of 2.76 µM, a TGI [19] of 8.45 µM and a GI50 [20] of 3 µM. The TGI [20] was 8.39 µM, the GI50 [21] was 1.85 µM and the TGI [21] was 3.94 µM. It also gave a GI50 [22] of 1.84 µM, a TGI [22] of 3.65 µM and a GI50 [23] of 1.63 µM. It also gave a TGI [23] of 3.09 µM, a GI50 [24] of 1.7 µM and a TGI [24] of 3.66 µM. The GI50 [25] was 2.67 µM, the TGI [25] was 6.49 µM and the GI50 [26] was 2.69 µM. The TGI [26] was 8.5 µM, the GI50 [27] was 1.72 µM and the TGI [27] was 3.61 µM. It also gave a GI50 [28] of 2.33 µM, a TGI [28] of 6.07 µM and a GI50 [29] of 2.11 µM. It also gave a TGI [29] of 5.94 µM, a GI50 [30] of 1.93 µM and a TGI [30] of 4.13 µM. The GI50 [31] was 2.93 µM, the TGI [31] was 11.6 µM and the GI50 [32] was 1.64 µM. For the same compound, the TGI [32] was 3.17 µM, the GI50 [33] was 2.12 µM and the TGI [33] was 4.89 µM. The GI50 [34] was 1.97 µM, the TGI [34] was 3.57 µM and the GI50 [35] was 1.75 µM. It also gave a TGI [35] of 3.14 µM, a GI50 [36] of 1.97 µM and a TGI [36] of 3.72 µM. It also gave a GI50 [37] of 1.88 µM, a TGI [37] of 3.56 µM and a GI50 [38] of 2.01 µM. It also gave a TGI [38] of 4.37 µM, a GI50 [39] of 2.64 µM and a TGI [39] of 7.83 µM. It also gave a GI50 [40] of 1.88 µM, a TGI [40] of 3.68 µM and a GI50 [41] of 2.9 µM. For the same compound, the TGI [41] was 8.27 µM, the GI50 [42] was 1.86 µM and the TGI [42] was 5.21 µM. It also gave a GI50 [43] of 1.8 µM, a TGI [43] of 3.21 µM and a GI50 [44] of 2.08 µM. It also gave a TGI [44] of 4.88 µM, a GI50 [45] of 1.94 µM and a TGI [45] of 3.62 µM. The GI50 [46] was 1.88 µM, the TGI [46] was 3.67 µM and the GI50 [47] was 0.426 µM. For the same compound, the TGI [47] was 1.3 µM, the GI50 [48] was 1.82 µM and the TGI [48] was 3.29 µM. For the same compound, the GI50 [49] was 2.91 µM, the TGI [49] was 10.8 µM and the GI50 [50] was 1.69 µM. It also gave a TGI [50] of 3.41 µM, a GI50 [51] of 2.06 µM and a TGI [51] of 5.23 µM. For the same compound, the GI50 [52] was 2.06 µM, the TGI [52] was 4.63 µM and the GI50 [53] was 1.98 µM. It also gave a TGI [53] of 4.52 µM, a GI50 [54] of 1.7 µM and a TGI [54] of 3.17 µM. It also gave a GI50 [55] of 1.86 µM, a TGI [55] of 3.51 µM and a GI50 [56] of 1.92 µM. It also gave a TGI [56] of 4.06 µM, a GI50 [57] of 1.96 µM and a TGI [57] of 4.07 µM. For the same compound, the GI50 [58] was 1.64 µM and the TGI [58] was 3 µM.
